Assay results as given in the supplement of paper PMC11208160.

assay: recombinant barcode read abundance after kanamycin selection (control-corrected) (log10(CPM+1)); higher = more efficient recombination; sequences stand for … in AGTGCAGAGAAAATCGGCCAGTTTTCTCTGCCTGCAGTCCGCATGCCGT…ATTTATGCAGCGGACTGCCTTTCTCCCAAAGTGATAAACCGGACAGTATCATGGACCGGTTTTCCCGGTAATCCGTATTTGCAAGGTTGGTTTCACT; site = the 11-nt target
Summary of the method: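 Reported as log10(CPM+1), each value stands for recombination efficiency. That efficiency is the averaged, control-corrected counts per million of barcodes found at recombinant junctions. Cells from a pooled E. coli library pairing targets with IS621 bridge RNA target-binding loops were plated twice on chloramphenicol/ampicillin LB agar (control) and twice on chloramphenicol/ampicillin/kanamycin with 0.1 mM IPTG.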

Row | Sequence | recombinant barcode read abundance (log10)
1 | GAGTCCATTTGGGTTCTAACCTGTTGCGTAG [GAGTCCACTAC_LTGcore_TT_RTGcore_CT] (site GAGTCCACTAC) (LTG core: TT, RTG core: CT) | 0.0725
2 | GAGTCCTAATGGGTTCTAACCTGTTGCCTAG [GAGTCCTCTAG_LTGcore_AA_RTGcore_CT] (site GAGTCCTCTAG) (LTG core: AA, RTG core: CT) | 0.149
3 | GAGTCCTAATGGGTTCTAACCTGTTGCCTTT [GAGTCCTCTAG_LTGcore_AA_RTGcore_AA] (site GAGTCCTCTAG) (LTG core: AA, RTG core: AA) | 0.11
4 | GAGTCCTCTTGGGTTCTAACCTGTTGCCTCA [GAGTCCTCTAG_LTGcore_CT_RTGcore_TG] (site GAGTCCTCTAG) (LTG core: CT, RTG core: TG) | 0.316
5 | GAGTCCTCTTGGGTTCTAACCTGTTGCCTCG [GAGTCCTCTAG_LTGcore_CT_RTGcore_CG] (site GAGTCCTCTAG) (LTG core: CT, RTG core: CG) | 1.19
6 | GAGTCCTCTTGGGTTCTAACCTGTTGCCTGT [GAGTCCTCTAG_LTGcore_CT_RTGcore_AC] (site GAGTCCTCTAG) (LTG core: CT, RTG core: AC) | 0.0922
7 | GAGTCCTGGTGGGTTCTAACCTGTTGCCTAG [GAGTCCTCTAG_LTGcore_GG_RTGcore_CT] (site GAGTCCTCTAG) (LTG core: GG, RTG core: CT) | 0.165
8 | GAGTCCTGTTGGGTTCTAACCTGTTGCCTAG [GAGTCCTCTAG_LTGcore_GT_RTGcore_CT] (site GAGTCCTCTAG) (LTG core: GT, RTG core: CT) | 0.165
9 | GAGTCCTTGTGGGTTCTAACCTGTTGCCTAG [GAGTCCTCTAG_LTGcore_TG_RTGcore_CT] (site GAGTCCTCTAG) (LTG core: TG, RTG core: CT) | 0.0483
10 | GCGCGACAGTGGGTTCTAACCTGTTGCTTCT [GCGCGACCTAA_LTGcore_AG_RTGcore_AG] (site GCGCGACCTAA) (LTG core: AG, RTG core: AG) | 0.313
11 | GCGCGACATTGGGTTCTAACCTGTTGCTTAG [GCGCGACCTAA_LTGcore_AT_RTGcore_CT] (site GCGCGACCTAA) (LTG core: AT, RTG core: CT) | 0.0488
12 | GCGCGACATTGGGTTCTAACCTGTTGCTTAT [GCGCGACCTAA_LTGcore_AT_RTGcore_AT] (site GCGCGACCTAA) (LTG core: AT, RTG core: AT) | 0.493
13 | GCGCGACCTTGGGTTCTAACCTGTTGCTTAG [GCGCGACCTAA_LTGcore_CT_RTGcore_CT] (site GCGCGACCTAA) (LTG core: CT, RTG core: CT) | 0.515
14 | GCGCGACGATGGGTTCTAACCTGTTGCTTTC [GCGCGACCTAA_LTGcore_GA_RTGcore_GA] (site GCGCGACCTAA) (LTG core: GA, RTG core: GA) | 0.0229
15 | GCGCGACTGTGGGTTCTAACCTGTTGCTTAG [GCGCGACCTAA_LTGcore_TG_RTGcore_CT] (site GCGCGACCTAA) (LTG core: TG, RTG core: CT) | 0.0192
16 | GCGCGACTTTGGGTTCTAACCTGTTGCTTAA [GCGCGACCTAA_LTGcore_TT_RTGcore_TT] (site GCGCGACCTAA) (LTG core: TT, RTG core: TT) | 0.108
17 | GCGGGACCGTGGGTTCTAACCTGTTGCCTCG [GCGGGACCTAG_LTGcore_CG_RTGcore_CG] (site GCGGGACCTAG) (LTG core: CG, RTG core: CG) | 0.248
18 | GCGGGACCTTGGGTTCTAACCTGTTGCCTAA [GCGGGACCTAG_LTGcore_CT_RTGcore_TT] (site GCGGGACCTAG) (LTG core: CT, RTG core: TT) | 1.15
19 | GCGGGACCTTGGGTTCTAACCTGTTGCCTAC [GCGGGACCTAG_LTGcore_CT_RTGcore_GT] (site GCGGGACCTAG) (LTG core: CT, RTG core: GT) | 0.997
20 | GCGGGACCTTGGGTTCTAACCTGTTGCCTAG [GCGGGACCTAG_LTGcore_CT_RTGcore_CT] (site GCGGGACCTAG) (LTG core: CT, RTG core: CT) | 2.64
21 | GCGGGACCTTGGGTTCTAACCTGTTGCCTAT [GCGGGACCTAG_LTGcore_CT_RTGcore_AT] (site GCGGGACCTAG) (LTG core: CT, RTG core: AT) | 1.68
22 | GCGGGACCTTGGGTTCTAACCTGTTGCCTCG [GCGGGACCTAG_LTGcore_CT_RTGcore_CG] (site GCGGGACCTAG) (LTG core: CT, RTG core: CG) | 1.7

Row | Sequence | recombinant barcode read abundance (log10)
23 | GCGGGACCTTGGGTTCTAACCTGTTGCCTGA [GCGGGACCTAG_LTGcore_CT_RTGcore_TC] (site GCGGGACCTAG) (LTG core: CT, RTG core: TC) | 0.0737
24 | GCGGGACCTTGGGTTCTAACCTGTTGCCTTG [GCGGGACCTAG_LTGcore_CT_RTGcore_CA] (site GCGGGACCTAG) (LTG core: CT, RTG core: CA) | 1.08
25 | GCGGGACGATGGGTTCTAACCTGTTGCCTAG [GCGGGACCTAG_LTGcore_GA_RTGcore_CT] (site GCGGGACCTAG) (LTG core: GA, RTG core: CT) | 0.171
26 | GCGGGACTATGGGTTCTAACCTGTTGCCTTA [GCGGGACCTAG_LTGcore_TA_RTGcore_TA] (site GCGGGACCTAG) (LTG core: TA, RTG core: TA) | 0.214
27 | GCGGGACTGTGGGTTCTAACCTGTTGCCTAG [GCGGGACCTAG_LTGcore_TG_RTGcore_CT] (site GCGGGACCTAG) (LTG core: TG, RTG core: CT) | 0.316
28 | GCGGGACTTTGGGTTCTAACCTGTTGCCTAA [GCGGGACCTAG_LTGcore_TT_RTGcore_TT] (site GCGGGACCTAG) (LTG core: TT, RTG core: TT) | 0.186
29 | GGACACCAATGGGTTCTAACCTGTTGCCTAG [GGACACCCTAG_LTGcore_AA_RTGcore_CT] (site GGACACCCTAG) (LTG core: AA, RTG core: CT) | 0.294
30 | GGACACCACTGGGTTCTAACCTGTTGCCTGT [GGACACCCTAG_LTGcore_AC_RTGcore_AC] (site GGACACCCTAG) (LTG core: AC, RTG core: AC) | 0.54
31 | GGACACCCATGGGTTCTAACCTGTTGCCTAG [GGACACCCTAG_LTGcore_CA_RTGcore_CT] (site GGACACCCTAG) (LTG core: CA, RTG core: CT) | 0.765
32 | GGACACCCATGGGTTCTAACCTGTTGCCTTG [GGACACCCTAG_LTGcore_CA_RTGcore_CA] (site GGACACCCTAG) (LTG core: CA, RTG core: CA) | 0.0906
33 | GGACACCCCTGGGTTCTAACCTGTTGCCTAG [GGACACCCTAG_LTGcore_CC_RTGcore_CT] (site GGACACCCTAG) (LTG core: CC, RTG core: CT) | 1.3
34 | GGACACCCGTGGGTTCTAACCTGTTGCCTCG [GGACACCCTAG_LTGcore_CG_RTGcore_CG] (site GGACACCCTAG) (LTG core: CG, RTG core: CG) | 0.314
35 | GGACACCCTTGGGTTCTAACCTGTTGCCTAT [GGACACCCTAG_LTGcore_CT_RTGcore_AT] (site GGACACCCTAG) (LTG core: CT, RTG core: AT) | 1.28
36 | GGACACCCTTGGGTTCTAACCTGTTGCCTCG [GGACACCCTAG_LTGcore_CT_RTGcore_CG] (site GGACACCCTAG) (LTG core: CT, RTG core: CG) | 0.306
37 | GGACACCCTTGGGTTCTAACCTGTTGCCTGA [GGACACCCTAG_LTGcore_CT_RTGcore_TC] (site GGACACCCTAG) (LTG core: CT, RTG core: TC) | 1.89
38 | GGACACCCTTGGGTTCTAACCTGTTGCCTGT [GGACACCCTAG_LTGcore_CT_RTGcore_AC] (site GGACACCCTAG) (LTG core: CT, RTG core: AC) | 0.442
39 | GGACACCGATGGGTTCTAACCTGTTGCCTAG [GGACACCCTAG_LTGcore_GA_RTGcore_CT] (site GGACACCCTAG) (LTG core: GA, RTG core: CT) | 0.0895
40 | GGACACCGGTGGGTTCTAACCTGTTGCCTAG [GGACACCCTAG_LTGcore_GG_RTGcore_CT] (site GGACACCCTAG) (LTG core: GG, RTG core: CT) | 0.255
41 | GGCTCCCAATGGGTTCTAACCTGTTGCGGAG [GGCTCCCCTCC_LTGcore_AA_RTGcore_CT] (site GGCTCCCCTCC) (LTG core: AA, RTG core: CT) | 0
42 | GGCTCCCACTGGGTTCTAACCTGTTGCGGAG [GGCTCCCCTCC_LTGcore_AC_RTGcore_CT] (site GGCTCCCCTCC) (LTG core: AC, RTG core: CT) | 0.149
43 | GGCTCCCACTGGGTTCTAACCTGTTGCGGGT [GGCTCCCCTCC_LTGcore_AC_RTGcore_AC] (site GGCTCCCCTCC) (LTG core: AC, RTG core: AC) | 0.143
